Read-outs that look alike come from different tables or passages of the source.
Target: T1, Human GPR120 (Homo sapiens, UniProt Q5NUL3)
T1 construct: Ga16 (promiscuous G protein) fusion partner; expressed in transfected cells
T1 sequence (Q5NUL3 with tags, fused parts or gaps): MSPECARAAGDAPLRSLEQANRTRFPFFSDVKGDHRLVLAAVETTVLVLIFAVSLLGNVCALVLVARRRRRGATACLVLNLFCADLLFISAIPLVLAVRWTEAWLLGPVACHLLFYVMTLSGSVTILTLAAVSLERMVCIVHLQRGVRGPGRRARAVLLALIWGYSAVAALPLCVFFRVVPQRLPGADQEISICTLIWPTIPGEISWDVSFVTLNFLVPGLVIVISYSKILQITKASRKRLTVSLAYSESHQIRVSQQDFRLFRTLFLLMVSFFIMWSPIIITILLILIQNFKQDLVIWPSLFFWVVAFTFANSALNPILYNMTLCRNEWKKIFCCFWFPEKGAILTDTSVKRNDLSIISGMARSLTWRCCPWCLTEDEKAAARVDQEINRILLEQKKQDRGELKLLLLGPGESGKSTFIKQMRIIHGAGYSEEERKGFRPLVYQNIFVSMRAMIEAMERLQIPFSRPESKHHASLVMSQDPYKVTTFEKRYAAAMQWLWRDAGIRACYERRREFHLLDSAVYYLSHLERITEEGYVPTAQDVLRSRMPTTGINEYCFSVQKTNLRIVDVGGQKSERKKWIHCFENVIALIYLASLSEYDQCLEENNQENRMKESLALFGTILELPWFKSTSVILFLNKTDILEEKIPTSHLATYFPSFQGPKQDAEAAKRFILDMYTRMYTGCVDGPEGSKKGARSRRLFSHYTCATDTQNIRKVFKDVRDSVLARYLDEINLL
Experiment: FLIPR assay: agonist-induced calcium mobilization in HEK293-GPR120-Ga16 cells
Format: cell-based
Details: for EC50: GPR120 activation, calcium mobilization, HEK293-GPR120-Ga16 cells; for Emax: % enhancement of the test compound relative to a known compound, read-out: % Efficiency
Procedure: Human GPR120 stable cell-line was generated in HEK293 cells. GPR120 (Accession number BC101175) is fused to a promiscuous G protein, Ga16. The expression plasmid is transfected into HEK293 cells using Fugene6 following manufacturer's instruction. Stable cell-lines are generated following drug selection.
FLIPR (Fluorimetric Imaging Plate Reader, Molecular Devices) assays are performed to measure agonist-induced calcium mobilization in the GPR120-expressing cells. One day before the FLIPR assay, HEK293-GPR120-Ga16 cells are seeded into poly-D-lysine coated black-wall-clear bottom 384 well plates (Falcon) at 25,000 cells per well in 40 μl DMEM supplemented with 1% of FBS. The cells are incubated overnight at 37° C. in a humidified incubator. The medium is aspirated on the day of the FLIPR assay. The cells are incubated with 50 μl/well of the assay buffer (HBSS, 20 mM HEPES, 2.5 mM probenecid, pH7.4) containing Fluo-4 NM dye (Invitrogen cat# F36205) at 37° C. for 45 minutes, and then equilibrated at room temperature for 30 minutes. Compounds are dissolved in DMSO and diluted to desired concentrations with assay buffer. Fluorescent output is measured immediately following compound addition (12.5 μl/well) on the FLIPR machine.
An EC50 value was calculated using the change of fluorescent intensity from the reaction initiation. […] In some examples, compounds provided herein have EC50 values from 0.1 μM to 5 μM, while in other examples from 0.5 μM to 5 μM.
The EC50 value in those experiments is given as that concentration of the test compound in question that provoke a response halfway between the baseline and maximum responses. In certain examples compounds of Formula (I) have EC50 values from 0.001 μM to 5 μM. In other examples, compounds of Formula (I) have EC50 values from 0.001 μM to 4 μM. In other examples, compounds of Formula (I) have EC50 values from 0.001 μM to 3 μM. In other examples, compounds of Formula (I) have EC50 values from 0.001 μM to 2 μM. In other examples, compounds of Formula (I) have EC50 values from 0.001 μM to 1 μM. In other examples, compounds of Formula (I) have EC50 values from 0.001 μM to 0.5 μM. […] In other examples, compounds of Formula (I) have EC50 values from 0.001 μM to 0.1 μM.
The % efficiency in those experiments is given as that % enhancement of the test compound in question relative to a known compound. In certain examples compounds of Formula (I) have a % efficiency values from 50% to 150%. In other examples, compounds of Formula (I) have a % efficiency values from 55% to 150%. In other examples, compounds of Formula (I) have a % efficiency values from 60% to 150%. In other examples, compounds of Formula (I) have a % efficiency values from 65% to 150%. In other examples, compounds of Formula (I) have a % efficiency values from 70% to 150%. In other examples, compounds of Formula (I) have a % efficiency values from 75% to 150%. In other examples, compounds of Formula (I) have a % efficiency values from 80% to 150%. In other examples, compounds of Formula (I) have a % efficiency values from 85% to 150%. In other examples, compounds of Formula (I) have a % efficiency values from 90% to 150%. In other examples, compounds of Formula (I) have a % efficiency values from 95% to 150%. In other examples, compounds of Formula (I) have a % efficiency values from 100% to 150%.

| SMILES | EC50 (read-out: EC50 Range) [µM] | Emax [%] | EC50 (read-out: EC50) [µM] |
| --- | --- | --- | --- |
| CCn1c(-c2cccc(C#N)c2)cs/c1=N\c1ccc(S(=O)(=O)O)cc1 [Compound 1, (Z)-4-(4-(3-cyanophenyl)-3-ethylthiazol-2(3H)-ylideneamino)benzenesulfonic acid] | 0.5 to 1 | – | – |
| CCn1c(-c2cc(C(F)(F)F)cc(C(F)(F)F)c2)cs/c1=N\c1ccc(S(=O)(=O)O)cc1 [Compound 2] | 0.25 to 0.5 | 102 | 0.396 |
| CCn1c(-c2ccccc2)c(C)s/c1=N\c1ccc(S(=O)(=O)O)cc1 [Compound 3, (Z)-4-(3-ethyl-5-methyl-4-phenylthiazol-2(3H)-ylideneamino)benzenesulfonic acid] | 0.5 to 1 | 85.6 | 0.547 |
| CCn1c(-c2cccc(F)c2)cs/c1=N\c1ccc(S(=O)(=O)O)cc1 [Compound 4, (Z)-4-(3-ethyl-4-(3-fluorophenyl)thiazol-2(3H)-ylideneamino)benzenesulfonic acid] | 0.25 to 0.5 | – | – |
| CCn1c(-c2cccc(Br)c2)cs/c1=N\c1ccc(S(=O)(=O)O)cc1 [Compound 5, (Z)-4-(4-(3-bromophenyl)-3-ethylthiazol-2(3H)-ylideneamino)benzenesulfonic acid] | 0.1 to 0.25 | – | – |
| CCn1c(-c2ccccc2OC(F)(F)F)cs/c1=N\c1ccc(S(=O)(=O)O)cc1 [Compound 6, (Z)-4-(3-ethyl-4-(2-(trifluoromethoxy)phenyl)thiazol-2(3H)-ylideneamino)benzenesulfonic acid] | 0.5 to 1 | 123 | 0.541 |
| CCn1c(-c2cc(Cl)ccc2Cl)cs/c1=N\c1ccc(S(=O)(=O)O)cc1 [Compound 7, (Z)-4-(4-(2,5-dichlorophenyl)-3-ethylthiazol-2(3H)-ylideneamino)benzenesulfonic acid] | 0.1 to 0.25 | 124 | 0.109 |
| CCn1c(-c2ccccc2Oc2ccccc2)cs/c1=N\c1ccc(C(=O)O)cc1 [Compound 8, (Z)-4-(3-ethyl-4-(2-phenoxyphenyl)thiazol-2(3H)-ylideneamino)benzoic acid] | 0.5 to 1 | 88.1 | 0.78 |
| CCn1c(-c2ccccc2)cs/c1=N\c1ccc(-c2nn[nH]n2)cc1 [Compound 9, (Z)-N-(3-ethyl-4-phenylthiazol-2(3H)-ylidene)-4-(2H-tetrazol-5-yl)aniline] | 0.1 to 0.25 | 98.4 | 0.207 |
| CCn1c(-c2ccccc2)cs/c1=N\c1ccc(C(=O)O)c(F)c1F [Compound 10, (Z)-4-(3-ethyl-4-phenylthiazol-2(3H)-ylideneamino)-2,3-difluorobenzoic acid] | 0.25 to 0.5 | 86.2 | 0.485 |
| CCn1c(-c2ccccc2C(F)(F)F)cs/c1=N\c1ccc(C(=O)O)cc1 [Compound 11, (Z)-4-(3-ethyl-4-(2-(trifluoromethyl)phenyl)thiazol-2(3H)-ylideneamino)benzoic acid] | 0.1 to 0.25 | – | – |
| CCn1c(-c2ccccc2OC(F)(F)F)cs/c1=N\c1ccc(C(=O)O)cc1 [Compound 12, (Z)-4-(3-ethyl-4-(2-(trifluoromethoxy)phenyl)thiazol-2(3H)-ylideneamino)benzoic acid] | 0.25 to 0.5 | – | – |
| CCn1c(-c2cccc(OC(F)(F)F)c2)cs/c1=N\c1ccc(C(=O)O)cc1 [Compound 13, (Z)-4-(3-ethyl-4-(3-(trifluoromethoxy)phenyl)thiazol-2(3H)-ylideneamino)benzoic acid] | 0.5 to 1 | – | – |
| CCn1c(-c2ccccc2)cs/c1=N\c1ccc(C(=O)O)c(F)c1 [Compound 14, (Z)-4-(3-ethyl-4-phenylthiazol-2(3H)-ylideneamino)-2-fluorobenzoic acid] | 0.1 to 0.25 | – | – |
| CCn1c(-c2ccccc2)cs/c1=N\c1ccc(C(=O)O)c(Br)c1 [Compound 15, (Z)-2-bromo-4-(3-ethyl-4-phenylthiazol-2(3H)-ylideneamino)benzoic acid] | 0.1 to 0.25 | – | – |
| CCCn1c(-c2ccccc2)cs/c1=N\c1ccc(C(=O)O)cc1 [Compound 16, (Z)-4-(4-phenyl-3-propylthiazol-2(3H)-ylideneamino)benzoic acid] | 0.25 to 0.5 | 96.9 | 0.479 |
| CC(C)n1c(-c2ccccc2)cs/c1=N\c1ccc(C(=O)O)cc1 [Compound 17, (Z)-4-(3-isopropyl-4-phenylthiazol-2(3H)-ylideneamino)benzoic acid] | 0.1 to 0.25 | – | – |
| CCn1c(-c2cccc(O)c2)cs/c1=N\c1ccc(C(=O)O)cc1 [Compound 18, (Z)-4-(3-ethyl-4-(3-hydroxyphenyl)thiazol-2(3H)-ylideneamino)benzoic acid] | 0.25 to 0.5 | – | – |
| CCn1c(-c2cc(O)ccc2Br)cs/c1=N\c1ccc(C(=O)O)cc1 [Compound 19, (Z)-4-(4-(2-bromo-5-hydroxyphenyl)-3-ethylthiazol-2(3H)-ylideneamino)benzoic acid] | 0.5 to 1 | 81.1 | 0.628 |
| CCn1c(-c2cccc(OCCOC)c2)cs/c1=N\c1ccc(C(=O)O)cc1 [Compound 20, (Z)-4-(3-ethyl-4-(3-(2-methoxyethoxy)phenyl)thiazol-2(3H)-ylideneamino)benzoic acid] | 0.1 to 0.25 | 77.1 | 0.119 |
| O=C(O)c1ccc(/N=c2\scc(-c3ccccc3)n2CC2CC2)cc1 [Compound 21, (Z)-4-(3-(cyclopropylmethyl)-4-phenylthiazol-2(3H)-ylideneamino)benzoic acid] | 0.25 to 0.5 | 84.7 | 0.446 |
| CCC(C)n1c(-c2ccccc2)cs/c1=N\c1ccc(C(=O)O)cc1 (stereo not shown) [Compound 22, (Z)-4-(3-sec-butyl-4-phenylthiazol-2(3H)-ylideneamino)benzoic acid] | 0.5 to 1 | – | – |
| O=C(O)c1ccc(/N=c2\scc(-c3ccccc3)n2CC(F)F)cc1 [Compound 23, (Z)-4-(3-(2,2-difluoroethyl)-4-phenylthiazol-2(3H)-ylideneamino)benzoic acid] | 0.1 to 0.25 | – | – |
| O=C(O)c1ccc(/N=c2\scc(-c3ccccc3)n2CC(F)(F)F)cc1 [Compound 24, (Z)-4-(4-phenyl-3-(2,2,2-trifluoroethyl)thiazol-2(3H)-ylideneamino)benzoic acid] | 0.1 to 0.25 | 71.2 | 0.184 |
| CCn1c(-c2ccccc2)cs/c1=N\c1c(F)c(F)c(C(=O)O)c(F)c1F [Compound 25, (Z)-4-(3-ethyl-4-phenylthiazol-2(3H)-ylideneamino)-2,3,5,6-tetrafluorobenzoic acid] | 0.25 to 0.5 | – | – |

From patent US8362050B2, “Compounds and methods for modulating G protein-coupled receptors” (IRM LLC, priority 2008, dated 2013)
